Experimental data published in PMC8922281, “Synthesis and In Vitro Biological Evaluation of Quinolinyl Pyrimidines Targeting Type II NADH-Dehydrogenase (NDH-2)” (ACS Infectious Diseases, 2022).
Converted amounts (≈) assume the structure as drawn. “And” between values parts separate entries of the source, which are not always exact repeats. Identical values can stand only once.

Assays:
[1] = biological target: MtNDH-2 (Mycobacterium tuberculosis, UniProt P95160); experiment: biochemical; set-up: species or system M. tuberculosis; settings: MtNDH-2 IC50
[2] = biological target: MsNDH-2 (Mycolicibacterium smegmatis, UniProt A0QYD6); experiment: Inhibition of MsNDH-2 (NADH oxidation with menadione, absorbance at 340 nm); type: biochemical, M. smegmatis
[3] = test system: E. coli (ATCC 25922, wild-type); experiment: MIC on ESKAPE pathogens, E. coli wild-type; type: cell-based; settings: Escherichia coli, ATCC25922; E. coli ATCC 25922, wild-type; read-out: MIC Ec WT
[4] = test system: E. coli (ΔtolC efflux-defective mutant, isogenic to ATCC 25922); experiment: microbe, parasite or virus in culture; type: cell-based; settings: Escherichia coli, ATCC25922, read-out: MIC Ec ΔtolC
[5] = test system: E. coli (D22, lpxC mutant, drug-hypersensitive); experiment: microbe, parasite or virus in culture; type: cell-based; settings: Escherichia coli, read-out: MIC Ec D22
[6] = test system: P. aeruginosa (PAO1, wild-type); experiment: MIC on ESKAPE pathogens, P. aeruginosa wild-type; type: cell-based; settings: Pseudomonas aeruginosa, PAO1, P. aeruginosa PAO1, wild-type; read-out: MIC Pa WT
[7] = test system: P. aeruginosa (PAO750 efflux-defective mutant, isogenic to PAO1); experiment: microbe, parasite or virus in culture; type: cell-based; settings: Pseudomonas aeruginosa, PAO1, read-out: MIC Pa efflux
[8] = test system: A. baumannii (ATCC 19606, wild-type); experiment: MIC on ESKAPE pathogens, A. baumannii; type: cell-based; settings: Acinetobacter baumannii, ATCC19606; A. baumannii ATCC 19606, wild-type; read-out: MIC Ab WT
[9] = test system: S. aureus (ATCC 29213, wild-type); experiment: MIC on ESKAPE pathogens, S. aureus; type: cell-based; settings: Staphylococcus aureus, ATCC29213
[10] = test system: M. tuberculosis strain H37Rv (ATCC 25618); experiment: MIC on M. tuberculosis by resazurin reduction microplate assay (REMA); type: cell-based; settings: Mycobacterium tuberculosis, M. tuberculosis H37Rv, read-out: MIC Mtb
[11] = Cytotoxicity on the MRC-5 cell line (resazurin); type: cell-based; settings: human, MRC-5SV2 cells, MRC-5SV2, 3 days
Method: MRC-5SV2 cells were cultured in Earl’s MEM + 5% FCSi. Assays were performed in 96-well microtiter plates, each well containing about 10^4 cells/well. After 3 days of incubation with or without compounds, cell viability was assessed fluorimetrically after the addition of resazurin (λex 550 nm, λem 590 nm). The results were expressed as % reduction in cell growth/viability compared to untreated control wells and CC50 was determined. Testing/retesting strategy was as described above for HepG2 cells.

[12] = test system: K. pneumonia (ATCC 13833, wild-type); experiment: MIC on ESKAPE pathogens, K. pneumoniae
[13] = 95% confidence interval in parentheses, 50 nM enzyme, 50 μM menadione, >100: no significant inhibition at 100 μM
[14] = same IC50 given in μg/mL to assist comparisons with MICs

Sequence of MsNDH-2 (A0QYD6 1-457): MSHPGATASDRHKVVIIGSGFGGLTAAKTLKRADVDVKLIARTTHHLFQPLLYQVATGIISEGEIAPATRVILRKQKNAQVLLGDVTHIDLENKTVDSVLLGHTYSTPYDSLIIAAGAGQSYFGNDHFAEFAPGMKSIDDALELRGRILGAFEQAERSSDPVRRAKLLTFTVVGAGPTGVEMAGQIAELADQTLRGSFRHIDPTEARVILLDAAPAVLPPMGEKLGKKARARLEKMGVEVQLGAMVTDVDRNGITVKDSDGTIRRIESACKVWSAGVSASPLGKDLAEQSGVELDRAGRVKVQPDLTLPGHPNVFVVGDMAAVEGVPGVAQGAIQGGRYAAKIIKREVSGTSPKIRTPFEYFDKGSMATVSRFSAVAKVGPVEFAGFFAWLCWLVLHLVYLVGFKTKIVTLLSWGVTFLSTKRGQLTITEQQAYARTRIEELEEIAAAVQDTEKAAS
Sequence of MtNDH-2 (P95160 2-463, added parts left off): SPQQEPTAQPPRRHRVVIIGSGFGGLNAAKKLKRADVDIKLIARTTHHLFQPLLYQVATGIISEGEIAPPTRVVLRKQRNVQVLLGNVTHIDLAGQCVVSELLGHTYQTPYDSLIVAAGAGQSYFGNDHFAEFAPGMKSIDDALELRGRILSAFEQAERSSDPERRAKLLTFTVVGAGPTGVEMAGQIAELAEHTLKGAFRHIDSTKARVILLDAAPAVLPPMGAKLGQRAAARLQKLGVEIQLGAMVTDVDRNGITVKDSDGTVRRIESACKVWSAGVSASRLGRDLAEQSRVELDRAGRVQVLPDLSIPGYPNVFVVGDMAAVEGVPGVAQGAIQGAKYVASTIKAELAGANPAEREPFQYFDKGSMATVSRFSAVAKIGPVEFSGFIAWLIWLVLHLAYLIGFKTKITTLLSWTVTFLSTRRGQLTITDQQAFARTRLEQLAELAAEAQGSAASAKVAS

SMILES	IC50 [1]	IC50 [2, 13]	IC50 [2, 14]	MIC [3]	MIC [4]	MIC [5]	MIC [6]	MIC [7]	MIC [8]	MIC [9]	MIC [10]	IC50 at 3 days ([11]; resazurin)	IC50 at 3 days ([11]; value in parentheses)	MIC Kp WT [12]
CC(C)(C)OC(=O)NC1CCN(c2cc(Nc3ccc4nc(-c5ccc(F)cc5)cc(N)c4c3)nc(N)n2)CC1 [Compound 8i, tert-Butyl (1-(2-Amino-6-((4-amino-2-(4-fluorophenyl)quinolin-6-yl)amino)pyrimidin-4-yl)piperidin-4-yl)carbamate]	0.441 µM	0.95 µM	0.918 µM	64 µg/mL (≈ 118 µM)	8 µg/mL (≈ 14.7 µM)	4 µg/mL (≈ 7.34 µM)	64 µg/mL (≈ 118 µM)	32 µg/mL (≈ 58.8 µM)	8 µg/mL (≈ 14.7 µM)	1 µg/mL (≈ 1.84 µM)	6.1 µg/mL (≈ 11.2 µM)	1.3 µM	0.7 µg/mL	64 µg/mL (≈ 118 µM)
CN(C)c1cc(Nc2ccc3nc(-c4ccc(F)cc4)cc(N)c3c2)nc(N)n1 [Compound 8k, N^4-(4-Amino-2-(4-fluorophenyl)quinolin-6-yl)-N^6,N^6-dimethylpyrimidine-2,4,6-triamine]	1.3 µM and 1.31 µM	2.7 µM	2.82 µM	32 µg/mL (≈ 82.2 µM)	2 µg/mL (≈ 5.14 µM)	8 µg/mL (≈ 20.5 µM)	> 64 µg/mL	4 µg/mL (≈ 10.3 µM)	8 µg/mL (≈ 20.5 µM)	8 µg/mL (≈ 20.5 µM)	5.9 µg/mL (≈ 15.2 µM)	1.8 µM	0.7 µg/mL	64 µg/mL (≈ 164 µM)
CN(CCO)c1cc(Nc2ccc3nc(-c4ccc(F)cc4)cc(N)c3c2)nc(N)n1 [Compound 8l, 2-((2-Amino-6-((4-amino-2-(4-fluorophenyl)quinolin-6-yl)amino)pyrimidin-4-yl)(methyl)amino)ethan-1-ol]	11 µM and 11.4 µM	16 µM	16.2 µM	16 µg/mL (≈ 38.1 µM)	8 µg/mL (≈ 19.1 µM)	8 µg/mL (≈ 19.1 µM)	> 64 µg/mL	> 64 µg/mL	> 64 µg/mL	32 µg/mL (≈ 76.3 µM)	9.8 µg/mL (≈ 23.4 µM)	7.8 µM	3.3 µg/mL	>64 µg/mL
CNCCN(C)c1cc(Nc2ccc3nc(-c4ccc(F)cc4)cc(N)c3c2)nc(N)n1 [Compound 8m, N^4-(4-Amino-2-(4-fluorophenyl)quinolin-6-yl)-N^6-methyl-N^6-(2-(methylamino)ethyl)pyrimidine-2,4,6-triamine]	16 µM	19 µM	18.5 µM	> 64 µg/mL	32 µg/mL (≈ 74 µM)	32 µg/mL (≈ 74 µM)	32 µg/mL (≈ 74 µM)	16 µg/mL (≈ 37 µM)	> 64 µg/mL	> 64 µg/mL	21.6 µg/mL (≈ 49.9 µM)	7.6 µM	3.3 µg/mL	>64 µg/mL
Nc1nc(Nc2ccc3nc(-c4ccc(F)cc4)cc(N)c3c2)cc(N2CCC(CO)CC2)n1 [Compound 8n, (1-(2-Amino-6-((4-amino-2-(4-fluorophenyl)quinolin-6-yl)amino)pyrimidin-4-yl)piperidin-4-yl)methanol]	4.1 µM and 4.13 µM			64 µg/mL (≈ 139 µM)	16 µg/mL (≈ 34.8 µM)	32 µg/mL (≈ 69.6 µM)	> 64 µg/mL	64 µg/mL (≈ 139 µM)	64 µg/mL (≈ 139 µM)	32 µg/mL (≈ 69.6 µM)	17.7 µg/mL (≈ 38.5 µM)	3.7 µM	1.7 µg/mL	>64 µg/mL
CCOc1cc(Nc2ccc3nc(-c4ccc(F)cc4)cc(N)c3c2)nc(N)n1 [Compound 9a, N^6-(2-Amino-6-ethoxypyrimidin-4-yl)-2-(4-fluorophenyl)quinoline-4,6-diamine]	0.9 µM and 0.896 µM	5.3 µM	5.38 µM	64 µg/mL (≈ 164 µM)	2 µg/mL (≈ 5.12 µM)	4 µg/mL (≈ 10.2 µM)	> 128 µg/mL	16 µg/mL (≈ 41 µM)	2 µg/mL (≈ 5.12 µM)	2 µg/mL (≈ 5.12 µM)	3.4 µg/mL (≈ 8.71 µM)	1.6 µM	0.6 µg/mL	64 µg/mL (≈ 164 µM)
Nc1nc(Nc2ccc3nc(-c4ccc(F)cc4)cc(N)c3c2)cc(OCCO)n1 [Compound 9b, 2-((2-Amino-6-((4-amino-2-(4-fluorophenyl)quinolin-6-yl)amino)pyrimidin-4-yl)oxy)ethan-1-ol]	2.5 µM and 2.46 µM	13 µM	12.8 µM	32 µg/mL (≈ 78.7 µM)	8 µg/mL (≈ 19.7 µM)	16 µg/mL (≈ 39.4 µM)	≥ 64 µg/mL	32 µg/mL (≈ 78.7 µM)	32 µg/mL (≈ 78.7 µM)	16 µg/mL (≈ 39.4 µM)	9.8 µg/mL (≈ 24.1 µM)	8 µM	3.3 µg/mL	32 µg/mL (≈ 78.7 µM)
CN1CCCC(COc2cc(Nc3ccc4nc(-c5ccc(F)cc5)cc(N)c4c3)nc(N)n2)C1 (centres unmarked) [Compound 9c, N^6-(2-Amino-6-((1-methylpiperidin-3-yl)methoxy)pyrimidin-4-yl)-2-(4-fluorophenyl)quinoline-4,6-diamine]	3.3 µM and 3.38 µM	14 µM	13.7 µM	64 µg/mL (≈ 135 µM)	16 µg/mL (≈ 33.8 µM)	32 µg/mL (≈ 67.6 µM)	> 64 µg/mL	16 µg/mL (≈ 33.8 µM)	> 64 µg/mL	64 µg/mL (≈ 135 µM)	37.5 µg/mL (≈ 79.2 µM)			>64 µg/mL
Nc1nc(Nc2ccc3nc(-c4ccc(F)cc4)cc(N)c3c2)cc(=O)[nH]1 [Compound 12, 2-Amino-6-((4-amino-2-(4-fluorophenyl)quinolin-6-yl)amino)pyrimidin-4(3H)-one]	1.5 µM and 1.49 µM	> 20 µM	> 19.9 µM	32 µg/mL (≈ 88.3 µM)	16 µg/mL (≈ 44.2 µM)	16 µg/mL (≈ 44.2 µM)	> 64 µg/mL	32 µg/mL (≈ 88.3 µM)	32 µg/mL (≈ 88.3 µM)	32 µg/mL (≈ 88.3 µM)	9.2 µg/mL (≈ 25.4 µM)			32 µg/mL (≈ 88.3 µM)
Nc1cc(-c2ccc(F)cc2)nc2ccc(Nc3cc(Cl)ncn3)cc12 [Compound 14, N^6-(6-Chloropyrimidin-4-yl)-2-(4-fluorophenyl)quinoline-4,6-diamine]	1.5 µM	5.1 µM	5.19 µM	> 64 µg/mL	> 64 µg/mL	64 µg/mL (≈ 175 µM)	> 64 µg/mL	> 64 µg/mL	> 64 µg/mL	64 µg/mL (≈ 175 µM)	4.8 µg/mL (≈ 13.1 µM)			>64 µg/mL
Nc1cc(-c2ccc(F)cc2)nc2ccc(Nc3cc(N4CCNCC4)ncn3)cc12 [Compound 15, 2-(4-Fluorophenyl)-N^6-(6-(piperazin-1-yl)pyrimidin-4-yl)quinoline-4,6-diamine]	6 µM and 6.02 µM	23 µM	20.9 µM	> 64 µg/mL	16 µg/mL (≈ 38.5 µM)	16 µg/mL (≈ 38.5 µM)	32 µg/mL (≈ 77 µM)	8 µg/mL (≈ 19.3 µM)	> 64 µg/mL	> 64 µg/mL	> 42 µg/mL	1.7 µM	0.7 µg/mL	>64 µg/mL
